The values below come from publication PMC10939466, “A transferrin receptor targeting dual-modal MR/NIR fluorescent imaging probe for glioblastoma diagnosis” (Regenerative Biomaterials, 2024).

The subject of series [1] is BBB model in vitro (bEnd.3 cells co-cultured with U87-MG cells). As to the kind of experiment: Sodium fluorescein permeability of the in vitro BBB model. The following applies: transwell 3 µm pore, 0.33 cm^2, bEnd.3 upper / U87-MG lower chamber; NaFl 10 µg/mL; 30, 60, 90 min; 37°C; fluorescence 485/535 nm. The class given is in vitro ADME. Here is the method:
A primary BBB model using bEnd.3 cells in vitro was established to evaluate the penetration ability of ^DTHR-Cy7-PEG-DSPE-SPIONs. The inner side of a polycarbonate transwell (Millipore, USA) with a mean pore size of 3 µm and a surface area of 0.33 cm^2 was coated with collagen. After coating, the transwell was left to air dry for 30 min. Then, bEnd.3 cells (5 × 10^4 cells per well) were seeded into the upper chamber of a 24-well transwell plate. After 48 h, 1 × 10^5 U87-MG cells were seeded in the lower chamber of each well. Both cells were co-cultured for 1 week.
The endothelial permeability coefficient of sodium fluorescein (NaFl) was used to evaluate the function of BBB model in vitro, as previously described. In brief, 200 µL NaFl solution (10 µg/mL) and 900 µL PBS were added to the upper and lower chambers of the BBB models, respectively. And then cultured in a 5% CO2 atmosphere at 37°C. Following incubation periods of 30, 60 and 90 min, 100 µL samples from the lower chambers were transferred to a new 96-well plate. […] Finally, the relative fluorescence intensity of the samples was measured using a multi-detector monochromator microplate reader (485/535 nm), with NaFl concentration deduced from a standard curve. The apparent permeability coefficient (Papp) was calculated using the formula: Papp=dQ/dt×1/(A×C0). […]

Series [2] is described as follows: Cellular uptake of the peptides. The class given is cell-based.

Square brackets hold non-standard residues; d marks the D form. Peptide text beside a SMILES is read from it.

Turning to `O=C([O-])c1ccccc1-c1c2ccc(=O)cc-2oc2cc([O-])ccc12.[Na+].[Na+]` [NaFl, sodium fluorescein], in series [1], the “Papp of NaFl, BBB model” value was 11.24 ± 0.73 ×10^−6 cm/s.
For the molecule `CSCC[C@@H](NC(=O)[C@@H](Cc1c[nH]c2ccccc12)NC(=O)[C@@H](CO)NC(=O)[C@H]1CCCN1C(=O)[C@H](NC(=O)[C@@H](Cc1c[nH]c2ccccc12)NC(=O)[C@H]1CCCN1C(C)=O)C(C)C)C(=O)N1CCC[C@@H]1C(=O)N1CCC[C@@H]1C(=O)N[C@H](CCCNC(=N)N)C(=O)N[C@H](Cc1c[nH]cn1)C(=O)N[C@@H](C(=O)O)[C@H](C)O` [^DTHR, Ac-pwvpswmpprht-COOH] (Ac-[dP][dW][dV][dP][dS][dW][dM][dP][dP][dR][dH][dT]-OH), in series [2], the “cellular uptake compared to THR” value is on record as “lower cellular uptake”.
